Assay results taken from ChEMBL document CHEMBL1125524, “Adenosine A1 antagonists. 2. Structure-activity relationships on diuretic activities and protective effects against acute renal failure” (J Med Chem, 1992).

How the values were obtained:
Rattus norvegicus [1] = assay: Serum creatinine concentration measured after intraperitoneal administration of 1 mg/kg of compound to rats(vehicle 5.07+/-0.33); type: functional
Rattus norvegicus [2] = assay: Effect on urinary excretion potassium and sodium after oral administration of 25 mg/kg to rats(potassium and sodium excretion in control rat is 0.130+/-0.009); type: functional, Urine
Rattus norvegicus [3] = assay: Urea nitrogen concentration measured after intraperitoneal administration of 1 mg/kg of compound to rats(vehicle 195.8+/-14.4); type: functional
Rattus norvegicus [4] = assay: Ratio of urinary excretion value (urinary volume) in treated rats to that in control rats, at a peroral dose of 25 mg/Kg; type: functional, Urine
Rattus norvegicus [5] = assay: Ratio of urinary excretion value (Na+ concentration) in treated rats to that in control rats, at a peroral dose of 25 mg/Kg; type: functional, Urine
Rattus norvegicus [6] = assay: Oral diuretic activity was measured after oral administration of 25 mg/kg to rats(control volume is 0.94+/-0.04); type: functional, Urine
Rattus norvegicus [7] = assay: Percent inhibition of Urea nitrogen by the compound given as ratio of UN value in treated to vehicle treated ones after intraperitoneal administration of 1 mg/kg of compound to rats(vehicle 195.8+/-14.4); type: functional; conditions: Rattus norvegicus, ip
Adenosine receptor A1 = biological target: T1, Adenosine receptor A1 (Cavia porcellus, UniProt P47745)
T1 sequence (P47745 whole entry): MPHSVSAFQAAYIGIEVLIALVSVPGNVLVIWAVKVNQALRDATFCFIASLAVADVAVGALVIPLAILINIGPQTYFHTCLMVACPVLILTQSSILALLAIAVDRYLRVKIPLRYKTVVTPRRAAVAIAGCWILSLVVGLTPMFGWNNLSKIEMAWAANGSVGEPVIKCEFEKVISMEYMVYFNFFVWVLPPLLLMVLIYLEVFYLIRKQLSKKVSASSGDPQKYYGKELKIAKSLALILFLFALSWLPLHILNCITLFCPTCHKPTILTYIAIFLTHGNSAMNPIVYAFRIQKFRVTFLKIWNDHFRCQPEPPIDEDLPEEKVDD
Description: Binding affinity against adenosine A1 receptor in guinea pig forebrain membranes using N6-[3H]cyclohexyladenosine as radioligand

Adenosine A2 receptor = Adenosine A2 receptor (Rattus norvegicus, UniProt P29276+P30543)
Rattus norvegicus [8] = organism: Rattus norvegicus; assay: animal or person; conditions: ip, read-out: Inhibition, dose 1 mg/kg, route intraperitoneal
Rattus norvegicus [9] = assay: Serum creatinine concentration measured after intraperitoneal administration of 1 mg/kg of compound to rats(vehicle 3.86+/-0.27); type: functional
Rattus norvegicus [10] = assay: Serum creatinine concentration measured after intraperitoneal administration of 10 mg/kg of compound to rats(vehicle 3.94+/-0.24); type: functional
Rattus norvegicus [11] = assay: Effect on urinary excretion potassium and sodium after oral administration of 25 mg/kg to rats(potassium and sodium excretion in control rat is 0.134+/-0.004); type: functional, Urine
Rattus norvegicus [12] = assay: Urea nitrogen concentration measured after intraperitoneal administration of 1 mg/kg of compound to rats(vehicle 178+/-11.3); type: functional
Rattus norvegicus [13] = assay: Oral diuretic activity was measured after oral administration of 25 mg/kg to rats(control volume is 0.80+/-0.04); type: functional, Urine
Rattus norvegicus [14] = assay: Ratio of urinary excretion value (urinary volume) in treated rats to that in control rats, at a peroral dose of 1.6 mg/Kg; type: functional, Urine
Rattus norvegicus [15] = assay: Ratio of sodium ion/potassium ion concentration in treated rats to that in control rats, at a peroral dose of 1.6 mg/Kg; type: functional
Rattus norvegicus [16] = assay: Ratio of sodium ion/potassium ion concentration in treated rats to that in control rats, at a peroral dose of 25 mg/Kg; type: functional
Rattus norvegicus [17] = assay: Effect on urinary excretion potassium and sodium after oral administration of 1.6 mg/kg to rats(potassium and sodium excretion in control rat is 0.261+/-0.008); type: functional, Urine
Rattus norvegicus [18] = assay: Ratio of urinary excretion value (Na+ concentration) in treated rats to that in control rats, at a peroral dose of 1.6 mg/Kg; type: functional, Urine
Rattus norvegicus [19] = assay: Ratio of urinary excretion value (Na+ concentration) in treated rats to that in control rats, at a peroral dose of 6.25 mg/Kg; type: functional, Urine
Rattus norvegicus [20] = assay: Percent inhibition of serum creatinine by the compound given as ratio of Cr value in treated to vehicle treated ones after intraperitoneal administration of 1 mg/kg of compound to rats(vehicle 3.86+/-0.27); type: functional; conditions: ip
Rattus norvegicus [21] = assay: Percent inhibition of serum creatinine by the compound given as ratio of Cr value in treated to vehicle treated ones fter intraperitoneal administration of 10 mg/kg of compound to rats(vehicle 3.94+/-0.24); type: functional; conditions: ip
Rattus norvegicus [22] = assay: Urea nitrogen concentration measured after intraperitoneal administration of 10 mg/kg of compound to rats(vehicle 141.3+/-6.6); type: functional
Rattus norvegicus [23] = assay: Oral diuretic activity was measured after oral administration of 1.6 mg/kg to rats(control volume is […]+/-[…]); type: functional, Urine
Rattus norvegicus [24] = assay: Percent inhibition of Urea nitrogen by the compound given as ratio of UN value in treated to vehicle treated ones fter intraperitoneal administration of 10 mg/kg of compound to rats(vehicle 141.3+/-6.6); type: functional; conditions: ip
Rattus norvegicus [25] = assay: Percent inhibition of Urea nitrogen by the compound given as ratio of UN value in treated to vehicle treated ones after intraperitoneal administration of 1 mg/kg of compound to rats(vehicle 178+/-11.3); type: functional; conditions: ip
Rattus norvegicus [26] = assay: Ratio of urinary excretion value (urinary volume) in treated rats to that in control rats, at a peroral dose of 6.25 mg/Kg; type: functional, Urine

CCCn1c(=O)c2nc(C3CC4C=CC3C4)[nH]c2n(CCC)c1=O (stereo in doubt; 18) gave a Cr (Rattus norvegicus [1]) of 2.23 mg/dL, a Na (Rattus norvegicus [2]) of 0.271 m equiv 6hr-1 100g-1 and a UN (Rattus norvegicus [3]) of 92.7 mg/dL. For the same compound, the T/C (Rattus norvegicus [4]) was 1.87, the T/C (Rattus norvegicus [5]) was 2.09 and the Urine volume (Rattus norvegicus [6]) was 1.75 ml 6hr-1 100g-1. For the same compound, the inhibition in vivo at 1 mg/kg (Rattus norvegicus [7]) was 53%, the Ki (Adenosine receptor A1) was 3.4 nM and the Ki (Adenosine A2 receptor) was 210 nM. It also gave an inhibition in vivo at 1 mg/kg (Rattus norvegicus [8]) of 56%.

Work on Cn1c(=O)c2nc(-c3ccccc3)[nH]c2n(C)c1=O [8-PHENYL THEOPHYLLINE] yielded a Cr (Rattus norvegicus [9]) of 3.14 mg/dL, a Cr (Rattus norvegicus [10]) of 1.74 mg/dL and a Na (Rattus norvegicus [11]) of 0.201 m equiv 6hr-1 100g-1. For the same compound, the UN (Rattus norvegicus [12]) was 148.3 mg/dL, the Urine volume (Rattus norvegicus [13]) was 1.1 ml 6hr-1 100g-1 and the T/C (Rattus norvegicus [14]) was 0.63. The T/C (Rattus norvegicus [4]) was 1.38, the “Na+/K+” value (Rattus norvegicus [15]) was 0.87 and the “Na+/K+” value (Rattus norvegicus [16]) was 1.39. The Na (Rattus norvegicus [17]) was 0.175 m equiv 6hr-1 100g-1, the T/C (Rattus norvegicus [18]) was 0.87 and the T/C (Rattus norvegicus [5]) was 1.39. The T/C (Rattus norvegicus [19]) was 1.54, the inhibition in vivo at 1 mg/kg (Rattus norvegicus [20]) was 19% and the inhibition in vivo at 10 mg/kg (Rattus norvegicus [21]) was 56%. It also gave a UN (Rattus norvegicus [22]) of 62.4 mg/dL, a Urine volume (Rattus norvegicus [23]) of 0.88 ml 6hr-1 100g-1 and an inhibition in vivo at 10 mg/kg (Rattus norvegicus [24]) of 56%. It also gave an inhibition in vivo at 1 mg/kg (Rattus norvegicus [25]) of 17%, a T/C (Rattus norvegicus [26]) of 1.79 and a Ki (Adenosine receptor A1) of 1600 nM. The Ki (Adenosine A2 receptor) was 2300 nM.
